Reference: article PMC9744894, “An optimized antimicrobial peptide analog acts as an antibiotic adjuvant to reverse methicillin-resistant Staphylococcus aureus” (NPJ Science of Food, 2022)
Converted amounts (≈) assume the structure as drawn. Read-outs that look alike come from different tables or passages of the source. No end group written: not given here.

Key:
[1] = system: MRSA (ATCC 43300); assay: Killing kinetics / growth inhibition; type: cell-based, Staphylococcus aureus; conditions: PIS-A-1 1/4 MIC or APC 1/8 MIC alone; OD600, 37 °C
Procedure: Likewise, the killing kinetics of antimicrobial agents against bacteria was tested. Briefly, 100 μL of antimicrobial agents were diluted two-fold in 96-well plates. Then, 100 μL of bacterial inoculum (1.5 × 10^6 CFU mL^−1) was appended and incubated at 37 °C. At a fixed time, the OD600 value of each well in the plate was measured by using a microplate reader (SpectraMax i3, Molecular Devices, USA).

[2] = system: methicillin-resistant Staphylococcus aureus ATCC 43300; assay: microbe, parasite or virus in culture; conditions: ATCC43300 / MRSA, 18 h
[3] = system: Salmonella enterica CMCC 50335; conditions: MHB, 37 °C, 18 h
Procedure: (§1) The minimum inhibitory concentration (MIC) was adopted to measure the antimicrobial spectrum of AMPs[42]. Specifically, experiments were executed by broth microdilution method in a 96-well plate (Corning) with an initial inoculum of 1.5 × 10^6 Colony-Forming units (CFU) mL^−1 in MHB based on Clinical and Laboratory Standards Institute (CLSI) guidelines. Inoculums were bacteria in the Mid-Logarithmic phase. To prevent edge effects, 96-well plates were placed in a constant temperature incubator (TSQ-280, Jianuo, China) at 37 °C. After 18 h of incubation, a microplate reader (SpectraMax i3, Molecular Devices, USA) was applied to determine the OD600 value of the plates. […] Simultaneously, the number of inactivated bacteria treated with different drugs was quantitatively determined by flow cytometry (BD Accuri C6 Plus, USA) combined with […] propidium iodide (PI, Thermo Fisher Scientific, USA)[43].

[4] = system: Shigella flexneri CMCC 51571; conditions: MHB, 37 °C, 18 h
Procedure: as §1

[5] = system: Shigella flexneri CMCC 51572; conditions: MHB, 37 °C, 18 h
Procedure: as §1

[6] = system: Shigella sonnei CMCC 51592; conditions: MHB, 37 °C, 18 h
Procedure: as §1

[7] = system: methicillin-resistant Staphylococcus aureus ATCC 43300
[8] = system: Escherichia coli CMCC44102
[9] = system: Escherichia coli CMCC 44817
[10] = system: Escherichia coli ATCC 8739
[11] = system: Shigalla Dysenteria CMCC 51252; conditions: CMCC 51252, 18 h
[12] = system: Bacillus cereus CMCC 63301
[13] = system: Bacillus pumilus CMCC 63202
[14] = system: Staphylococcus aureus ATCC 29213
[15] = system: Staphylococcus aureus CMCC 26003
[16] = system: Staphylococcus aureus ATCC 12600
[17] = system: Staphylococcus aureus ATCC 6538
[18] = system: MRSA N315
[19] = system: Staphylococcus aureus
[20] = system: MRSA (ATCC 43300); conditions: chessboard with APC, MRSA ATCC 43300, 18 h; synergy defined as FIC index ≤ 0.5
[21] = system: Caco-2 cells; assay: Cytotoxicity, MTT assay; conditions: Caco-2, MTT; 64 μg/mL (concentration for PIS-1 and PIS-3 implied by context); mean ± SD, n = 3
Procedure: Caco-2 cells cultured with RPMI 1640 medium (containing 10% FBS and 1% penicillin-streptomycin) were incubated in a humidified CO2 (5%) atmosphere. Next, trypsin-treated cells (0.25%) were seeded in 96-well plates at a density of 5,000 per well and incubated for 24 h. Finally, cell viability of each well with fresh medium was tested by MTT assay.

[22] = system: mouse blood cells; type: cell-based, mice
Procedure: Blood cells taken from mice (ICR, male, 30–35 g) were treated with different concentrations of AMPs for 1 h. Meanwhile, Triton X-100 (0.2%) and phosphate-buffered saline (PBS, 0.01 moL^−1, pH 7.4) were used as positive and negative controls, respectively. After the reaction was completed, the OD576 value of each tube sample was determined and the hemolysis rate was calculated using the formula below[44],[45]:1 Hemolysisrate(%)=[(OD576sample−OD576blank)/(OD576TritonX−100−OD576blank)]×100%

[23] = system: pepsin, papain, and trypsin; type: in vitro ADME; conditions: pH 7.4
Procedure: AMPs were exposed to proteases (including pepsin, papain, and trypsin) dissolved in PBS (pH 7.4) at 37 °C for 12 h. Subsequently, proteases in AMPs were inactivated by high-temperature treatment (95 °C, 5 min) and the activity of treated AMPs against MRSA (ATCC 43300) was determined. AMPs dissolved in PBS without proteases were used as controls.

CC1(C)S[C@@H]2[C@H](NC(=O)[C@H](N)c3ccccc3)C(=O)N2[C@H]1C(=O)O [APC, Ampicillin]
bactericidal activity in growth inhibition experiment, applied separately [1]: no bactericidal activity
MIC [2]: 16 µg/mL (≈ 45.8 µM)

CN[C@H](CC(C)C)C(=O)N[C@H]1C(=O)N[C@@H](CC(N)=O)C(=O)N[C@H]2C(=O)N[C@H]3C(=O)N[C@H](C(=O)N[C@H](C(=O)O)c4cc(O)cc(O)c4-c4cc3ccc4O)[C@H](O)c3ccc(c(Cl)c3)Oc3cc2cc(c3O[C@@H]2O[C@H](CO)[C@@H](O)[C@H](O)[C@H]2O[C@H]2C[C@](C)(N)[C@H](O)[C@H](C)O2)Oc2ccc(cc2Cl)[C@H]1O [VAN, vancomycin]
MIC [2]: 0.25 µg/mL (≈ 0.173 µM)

FFHHIFRGIVHVGKTIHRLVTG [PIS-1] [listing 1 of 2 here]
MIC [3]: 16 µg/mL
MIC [4]: 8 µg/mL
MIC [5]: 8 µg/mL
MIC [6]: 8 µg/mL
MIC ([7]; MRSA ATCC 43300, broth microdilution in MHB, 1.5 × 10^6 CFU mL^−1, 37 °C, 18 h, OD600): 16 µg/mL
MIC ([8]; Escherichia coli CMCC44102, first listing in Supplementary table 1, MHB, 37 °C, 18 h): 16 µg/mL
MIC ([8]; Escherichia coli CMCC 44102, second listing in Supplementary table 1, MHB, 37 °C, 18 h): 4 µg/mL
MIC ([9]; Escherichia coli CMCC 44817, MHB, 37 °C, 18 h): 16 µg/mL
MIC ([10]; Escherichia coli ATCC 8739, first listing in Supplementary table 1, MHB, 37 °C, 18 h): 8 µg/mL
MIC ([10]; Escherichia coli ATCC 8739, second listing in Supplementary table 1, MHB, 37 °C, 18 h): 8 µg/mL
MIC [11]: 16 µg/mL
MIC ([12]; Bacillus cereus CMCC 63301, MHB, 37 °C, 18 h): 16 µg/mL
MIC ([13]; Bacillus pumilus CMCC 63202, MHB, 37 °C, 18 h): 16 µg/mL
MIC ([14]; Staphylococcus aureus ATCC 29213, MHB, 37 °C, 18 h): 8 µg/mL
MIC ([15]; Staphylococcus aureus CMCC 26003, MHB, 37 °C, 18 h): 16 µg/mL
MIC ([16]; Staphylococcus aureus ATCC 12600, MHB, 37 °C, 18 h): 8 µg/mL
MIC ([17]; Staphylococcus aureus ATCC 6538, MHB, 37 °C, 18 h): 8 µg/mL
MIC ([18]; MRSA N315, MHB, 37 °C, 18 h): 8 µg/mL
MIC against Staphylococcus aureus ([19]; range over Staphylococcus aureus strains): 8~16 μg/mL
FIC (FIC index) with APC [20]: 0.31

FFHHIFRGIVHVGKTIHRLVTG [PIS-1] [listing 2 of 2 here]
cell viability [21]: 3.64 ± 0.79%

FIHHIFRGIVHAG [PIS-A-5]
MIC ([7]; ATCC 43300, 18 h): ≥64 µg/mL

FIHHIFRGIVHAGRSIGRFLTG [PIS-3]
MIC ([7]; ATCC 43300, 18 h): 32 µg/mL
MIC ([8]; CMCC44102, 18 h): 16 µg/mL
MIC ([9]; CMCC 44817, 18 h): 16 µg/mL
MIC ([10]; ATCC 8739, 18 h): 8 µg/mL
MIC [11]: 32 µg/mL
MIC ([12]; CMCC 63301, 18 h): 16 µg/mL
MIC ([13]; CMCC 63202, 18 h): 16 µg/mL
MIC ([14]; ATCC 29213, 18 h): 16 µg/mL
MIC ([15]; CMCC 26003, 18 h): 32 µg/mL
MIC ([16]; ATCC 12600, 18 h): 16 µg/mL
MIC ([17]; ATCC 6538, 18 h): 16 µg/mL
MIC ([18]; N315, 18 h): 16 µg/mL

FIHHIFRGIVHLGRSIGRFLTG [PIS-A-2]
MIC ([7]; ATCC 43300, 18 h): 16 µg/mL

FIHHIFRGIVHVGRS [PIS-A-4]
MIC ([7]; ATCC 43300, 18 h): 32 µg/mL

FIHHIFRGIVHVGRSIG [PIS-A-3]
MIC ([7]; ATCC 43300, 18 h): 32 µg/mL

FIHHIFRGIVHVGRSIGRFLTG [PIS-A-1]
MIC [3]: 16 µg/mL
MIC [4]: 8 µg/mL
MIC [5]: 16 µg/mL
MIC [6]: 16 µg/mL
hemolysis at its MIC [22]: did not induce minimal hemolysis
HC50 (minimum AMP concentration producing 50% hemolysis of red blood cells) ([22]; red cells of mouse, 1 h): 64 µg/mL
resistance to enzymatic degradation (change of MIC against MRSA after protease treatment) [23]: least affected by enzymatic degradation
MIC ([7]; ATCC 43300, 18 h): 8 µg/mL
MIC ([9]; CMCC 44817, 18 h): 16 µg/mL
MIC ([10]; ATCC 8739, 18 h): 8 µg/mL
MIC [11]: 16 µg/mL
MIC ([12]; CMCC 63301, 18 h): 8 µg/mL
MIC ([13]; CMCC 63202, 18 h): 16 µg/mL
MIC ([14]; ATCC 29213, 18 h): 8 µg/mL
MIC ([15]; CMCC 26003, 18 h): 16 µg/mL
MIC ([16]; ATCC 12600, 18 h): 8 µg/mL
MIC ([17]; ATCC 6538, 18 h): 8 µg/mL
MIC ([18]; N315, 18 h): 8 µg/mL
MIC against Staphylococcus aureus ([19]; 18 h): 8~16 μg/mL
FIC (FIC index) with APC [20]: 0.19

GIVHAG [PIS-A-6]
MIC ([7]; ATCC 43300, 18 h): ≥64 µg/mL

GIVHAGRSIGRFLTG [PIS-A-7]
MIC ([7]; ATCC 43300, 18 h): ≥64 µg/mL
